{"source": "paper PMC12677653", "about": "“Inhibition of Tumor Lipogenesis and Growth by Peptide‐Based Targeting of SREBP Activation” (Advanced Science, 2025)", "molecules": {"B1": {"name": "Insig1/2 loop 1 peptide (143-LYPCIDSHLGEPHKFKRE-160) (peptide)", "chain": "LYPCIDSHLGEPHKFKRE"}}, "key": {"[1]": {"test_system": "Insig1 pS207/Insig2 pS151, SREBP1, Ki67", "assay": "IHC analysis of mouse tumors derived from Huh7 cells", "type": "in vivo, BALB/c athymic nude mice", "conditions": "peptide given as LNP@Insig1/2 loop 1 peptide 10 mg/kg iv, lenvatinib mesylate 2 mg/kg oral", "procedure": "(§1) Representative micrographs are shown (scale bar: 20 µm). b,c) Cryosections of mouse tumor tissues were prepared for histological analysis. (b) Lipid accumulation was assessed by Oil Red O staining. Representative micrographs are shown (scale bar: 20 µm). (c) Apoptotic cells were detected by TUNEL assay. Representative micrographs are shown (scale bar: 20 µm). d,e) Quantitative analysis of (d) apoptotic areas (TUNEL‐positive regions) and (e) lipid droplet counts (Oil Red O‐positive particles) was performed. Data represent the mean ± SD (n = 4). Statistical significance was determined by one‐way analysis of variance (ANOVA). ** p < 0.01, **** p < 0.0001, ns, no significance.\nAs described previously,^[ [39] ^] IHC staining was performed using the Vectastain ABC kit (Vector Laboratories) according to the manufacturer's instructions. Sections of paraffin‐embedded xenograft tumors were stained with antibodies against Ki67, SREBP1, Insig1 pS207/Insig2 pS151, and nonspecific IgG was used as a negative control. Paraffin‐embedded human liver tumor sections were stained with antibodies against Ki67, SREBP1, Insig1 pS207/Insig2 pS151, with nonspecific IgG as a negative control. The tissue sections were quantitatively scored according to the percentage of positive cells and staining intensity. […] The intensity of staining was rated on a scale of 0 to 3: 0, negative; 1, weak; 2, moderate; and 3, strong. The study then combined the proportion and intensity scores to obtain a total score (range, 0–8)."}, "[2]": {"test_system": "lipid accumulation in tumor tissues", "assay": "Oil Red O staining of tumor tissues", "type": "in vivo, BALB/c athymic nude mice", "conditions": "cryosections of Huh7 tumors, n = 4; peptide given as LNP 10 mg/kg iv; lenvatinib mesylate 2 mg/kg oral", "procedure": "as §1\nCryosections 6–8 µm in thickness were air‐dried and fixed with formaldehyde for 5–10 min. Then, the slides were placed in absolute propylene glycol for 2–5 min and stained with 0.5% Oil red O dye. After staining, the slides were rinsed, counterstained with Mayer's hematoxylin for 1 min, and mounted in glycerin."}, "tumor cell apoptosis": {"test_system": "tumor cell apoptosis", "assay": "TUNEL assay of tumor tissues", "type": "in vivo, BALB/c athymic nude mice", "conditions": "cryosections of Huh7 tumors, n = 4; peptide given as LNP 10 mg/kg iv; lenvatinib mesylate 2 mg/kg oral", "procedure": "as §1\nMouse tumor tissues were sectioned at 5 µm thickness. Apoptotic cells were counted using the colorimetric TUNEL System (Beyotime, C1091) according to the manufacturer's instructions. The total numbers of apoptotic cells were counted in six high‐power fields and presented as an average number of apoptotic cells per high‐power fields."}, "Huh7 cells": {"test_system": "Huh7 cells", "assay": "Cellular peptide uptake, western blot", "type": "in vitro ADME, human", "conditions": "biotin-labeled peptide 15 μM, 30 min, TAT versus TAT-LOF sequence", "quoted_text": "d) Huh7 cells were incubated for 30 min with biotin-labeled Insig1/2 loop1 peptide (15 μM), either with TAT or TAT loss of function (TAT-LOF) sequence, with subsequent western blot analysis of cellular peptide uptake."}, "[3]": {"molecular_target": "T1, S90-phosphorylated GST-PCK1 (human, UniProt P35558 1-622, phosphoserine at 90; biotin (G-MM-IGT Biotinylation kit))", "T1 chain": "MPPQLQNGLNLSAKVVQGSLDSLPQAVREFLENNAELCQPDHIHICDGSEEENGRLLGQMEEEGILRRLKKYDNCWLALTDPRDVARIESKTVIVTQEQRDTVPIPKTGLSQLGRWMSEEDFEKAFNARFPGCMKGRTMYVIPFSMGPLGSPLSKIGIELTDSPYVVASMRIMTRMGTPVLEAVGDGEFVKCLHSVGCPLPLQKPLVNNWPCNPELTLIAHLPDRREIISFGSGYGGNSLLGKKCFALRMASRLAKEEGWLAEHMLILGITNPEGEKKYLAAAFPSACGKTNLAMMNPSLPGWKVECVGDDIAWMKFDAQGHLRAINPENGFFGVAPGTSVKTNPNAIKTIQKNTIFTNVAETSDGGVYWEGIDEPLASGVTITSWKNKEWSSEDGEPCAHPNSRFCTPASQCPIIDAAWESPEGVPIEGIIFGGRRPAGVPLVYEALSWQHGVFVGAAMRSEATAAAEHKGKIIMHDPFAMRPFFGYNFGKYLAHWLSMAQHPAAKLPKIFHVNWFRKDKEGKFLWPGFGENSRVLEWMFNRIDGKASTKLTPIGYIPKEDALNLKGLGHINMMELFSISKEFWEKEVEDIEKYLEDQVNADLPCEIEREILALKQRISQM", "assay": "BLI; phosphorylated S90"}, "WT GST-PCK1": {"molecular_target": "T2, WT GST-PCK1 (human, UniProt P35558 1-622, biotin (G-MM-IGT Biotinylation kit))", "T2 chain": "T1 chain", "assay": "BLI"}}, "note": "Residues, ends and D or L forms follow the SMILES beside them.", "data": [{"molecule": "COc1cc2nccc(Oc3ccc(NC(=O)NC4CC4)c(Cl)c3)c2cc1C(N)=O", "note": "[lenvatinib, reference compound]", "values": [{"measurement": "Insig1 S207/Insig2 S151 phosphorylation in tumors", "setting": "[1]", "value": "reductions were also observed"}, {"measurement": "Ki67 expression in tumors", "setting": "[1]", "value": "reductions were also observed"}, {"measurement": "SREBP1 expression and nuclear accumulation in tumors", "setting": "[1]", "value": "reductions were also observed"}, {"measurement": "lipid accumulation in tumor tissues (Oil Red O)", "setting": "[2]", "value": "reductions were also observed"}, {"measurement": "cell apoptosis in tumor tissues (TUNEL)", "setting": "tumor cell apoptosis", "value": "induced cell apoptosis in tumor tissues"}]}, {"molecule": "CC[C@H](C)[C@H](NC(=O)[C@H](CS)NC(=O)[C@@H]1CCCN1C(=O)[C@H](Cc1ccc(O)cc1)NC(=O)[C@H](CC(C)C)NC(=O)CCCC[C@@H]1SC[C@@H]2NC(=O)N[C@@H]21)C(=O)N[C@@H](CC(=O)O)C(=O)N[C@@H](CO)C(=O)N[C@@H](Cc1c[nH]cn1)C(=O)N[C@@H](CC(C)C)C(=O)NCC(=O)N[C@@H](CCC(=O)O)C(=O)N1CCC[C@H]1C(=O)N[C@@H](Cc1c[nH]cn1)C(=O)N[C@@H](CCCCN)C(=O)N[C@@H](Cc1ccccc1)C(=O)N[C@@H](CCCCN)C(=O)N[C@@H](CCCNC(=N)N)C(=O)N[C@@H](CCC(=O)O)C(=O)N[C@@H](C)C(=O)N[C@@H](C)C(=O)N[C@@H](CCC(=O)O)C(=O)N[C@@H](C)C(=O)N[C@@H](C)C(=O)N[C@@H](CCC(N)=O)C(=O)N[C@@H](C)C(=O)N[C@@H](C)C(=O)N[C@@H](CCC(=O)O)C(=O)O", "note": "[Biotin‐peptide‐TAT LOF] (HELM PEPTIDE1{[O=C1N[C@H]2[C@H](CS[C@H]2CCCCC(=O)[*:2])N1].L.Y.P.C.I.D.S.H.L.G.E.P.H.K.F.K.R.E.A.A.E.A.A.Q.A.A.E}$$$$V2.0)", "values": [{"measurement": "peptide accumulation in tumor cells in vitro", "setting": "Huh7 cells", "value": "substantially reduced peptide accumulation"}]}, {"molecule": "B1", "values": [{"measurement": "Kd", "setting": "[3]", "value": 10.5, "unit": "µM"}, {"measurement": "Kd", "setting": "WT GST-PCK1", "value": 36.8, "unit": "µM"}]}]}
